Test results: article PMC6508953 (Cell chemical biology, 2017)

Tests used:
Bax [1] = experiment: Bax:membrane FRET; type: biochemical, human; conditions: 10 μM preincubated with 20 nM Alexa568-Bax, 20 nM BIM, DiD liposomes
Bax [2] = molecular target: T1, Bax (Homo sapiens, UniProt Q07812); experiment: DSS chemical crosslinking of Bax oligomers in liposomes, immunoblot; type: biochemical; conditions: for large oligomers of Bax (DSS crosslinking): high concentrations, compared with positive control Bcl-XL
Bax [3] = molecular target: T1, Bax; conditions: not told
Bax [4] = molecular target: T1, Bax; experiment: tBid/Bax-mediated liposome permeabilization; conditions: for IC50: read-out: IC50, concentration of compound required to inhibit 50% of the maximal dye release, liposomes, tBid and Bax, ANTS/DPX release
HCT-116 cells [5] = experiment: Immunofluorescence for activated Bax; type: cell-based, human; conditions: 10 μM for 3 hr before ActD for 24 hr, HCT-116 WT
[6] = tested on: primary embryonic mouse brain cortical neurons; experiment: Glutamate excitotoxicity, lactate dehydrogenase release; type: cell-based
Bax [7] = molecular target: T1, Bax; experiment: Bax binding to mitochondria by differential centrifugation; type: biochemical; conditions: preincubation of Bax or mitochondria with compound
Bax [8] = experiment: Bax:Bax FRET oligomerization assay; type: biochemical, human; conditions: 10 μM, liposomes and tBid
Bax [9] = type: biochemical; conditions: 40 μM
HCT-116 cells [10] = conditions: 5 or 10 μM pretreatment; WT, Bax-/- and Bak-/- HCT-116 cells; actinomycin D

T1 sequence (Q07812 whole entry): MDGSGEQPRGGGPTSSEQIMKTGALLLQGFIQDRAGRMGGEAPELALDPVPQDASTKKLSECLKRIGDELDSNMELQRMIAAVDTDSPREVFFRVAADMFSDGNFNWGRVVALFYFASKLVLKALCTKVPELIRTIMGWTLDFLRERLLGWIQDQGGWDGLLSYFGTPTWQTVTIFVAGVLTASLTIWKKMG

| SMILES | Bax binding to membranes by FRET (Bax [1]) | large oligomers of Bax (DSS crosslinking) (Bax [2]) | inhibition of heat-activated Bax-mediated liposome permeabilization (Bax [3]) | protection against ActD treatment (BMK cells; sub-toxic doses) | IC50 (Bax [4]) [nM] | Bax-6A7 positivity (exposure of N-terminal Bax epitope) after ActD (HCT-116 cells [5]) | cytochrome c release from mitochondria in cells after ActD (HCT-116 cells [5]) | neuronal damage after glutamate excitotoxicity (LDH release) ([6]; 5 μM added directly after 30 min of 25 or 100 μM glutamate, read after 24 hr) | neuronal damage by compound alone ([6]; 5 μM, 24 hr, no glutamate) | Bax binding to mitochondria (Bax [7]) | FRET between DAC-Bax-134C and NBD-Bax-126C (Bax oligomerization) (Bax [8]) | Bax dimerization (DSS crosslinking) (Bax [2]; highest concentration tested) | disulfide crosslinks of double-cysteine Bax L59C/L76C and L59C/M79C (Bax [9]) | disulfide crosslinking of Bax-L63C with Bax-A112C (Bax [9]; IVT and TNT systems) | survival and growth after ActD treatment and replating (HCT-116 cells [10]) | survival and growth after STS treatment and replating (BMK cells; 5 μM compound, BMK cells, staurosporine) | survival and growth after ActD treatment and replating (BMK cells; 5 or 10 μM pretreatment, WT, Bax-/- and Bak-/- BMK cells, 75 nM ActD) | concentration-dependent inhibition of liposome permeabilization by tBid and Bax (Bax [4]; individual assays, normalized to reactions without compound) |
| --- | --- | --- | --- | --- | --- | --- | --- | --- | --- | --- | --- | --- | --- | --- | --- | --- | --- | --- |
| NCCCN(Cc1ccc(Br)cc1)C(=O)[C@H](Cc1ccccc1)NC(=O)c1ccccc1 [DAN004] | did not inhibit Bax binding to membranes | inhibited large oligomers of Bax to a similar extent as the positive control Bcl-XL | inhibited heat-activated Bax-mediated liposome permeabilization equivalently | did not confer protection against ActD treatment | ~700 |  |  |  |  |  |  |  |  |  |  |  |  |  |
| COCCOCOc1ccc2c(c1)O[C@H](CN)[C@H]2N(Cc1ccc(Br)cc1)C(=O)[C@H](Cc1ccccc1)NC(=O)c1ccccc1 [MSN-125] |  | inhibited large oligomers of Bax to a similar extent as the positive control Bcl-XL |  |  | ~4000 | prevented | prevented | substantially reduced neuronal damage | did not result in neuronal damage | did not inhibit Bax binding to mitochondria | reduced FRET | inhibited Bax dimerization to a limited extent | not inhibited by MSN-125 | not inhibited by MSN-125 | conferred survival | conferred long-term survival and growth | conferred survival | inhibited dye release from liposomes in a concentration-dependent fashion |
